Test results: patent US20150342853A1, “Topical Lightening Composition and Methods of Use Thereof” (Avon Products, Inc., priority 2014, published 2015)

Test: in vitro test of lightening of synthetic melanin (absorbance at 405 nm)
Assay type: biochemical
Conditions: melanin absorbance at 405 nm relative to vehicle control, two weeks
Description: Fabiana imbricata extract (having between 15,000 and 30,000 units/g of glucose oxidase activity) was examined for its ability to lighten melanin in an in vitro test. A solution of synthetic melanin at a concentration of 0.025% in dimethyl sulfoxide was prepared. 1 ml was added to each well of a 24-well plate. A 1% stock solution of Fabiana imbricata extract was prepared in phosphate-buffered saline and diluted serially at a ratio of 1:2 yielding 0.5%, 0.25% and 0.125% solutions of Fabiana imbricata extract. Solutions of glucose were prepared similarly. 10 microliters of each concentration of Fabiana imbricata extract was added along with 10 microliters of glucose to 1 ml of the melanin solution in each well of the microplate. Each concentration was tested in triplicate. Three wells received the phosphate-buffered saline as vehicle control. Hydrogen peroxide at 0.3, 0.03 and 0.003% was added to 3 wells each as positive control. The microplate was incubated at room temperature and treatments described above were repeated for a total of ten times over two weeks. At the end of the incubation period, melanin absorbance was measured at 405 nm using a spectrophotometer. Results are summarized in the table below as percent of melanin absorbance relative to vehicle control. A lower absorbance indicates lightening of melanin.

With OO [Example H2O2, Hydrogen peroxide] the “% Relative Absorbance” value (0.003% H2O2 positive control) was 87.5%, the “% Relative Absorbance” value (0.03% H2O2 positive control) was 70.6% and the “% Relative Absorbance” value (0.3% H2O2 positive control) was 30.6%.
